Assays:
[1] = system: ATF4; assay: Western blot for ATF4; assay type: cell-based, mouse; settings: 24 hours, compared to DMSO controls
Description: (a) MA-plot showing shrunken log2 fold-changes of detected genes between the DMSO and FGIN-1-27 RNA-seq samples, ranked by average normalized count. Red dots indicate differentially expressed genes at adjusted p-value <0.05. (b) Transcript levels for the indicated genes after 24 hours of treatment with DMSO or FGIN-1-27 quantified by qPCR. The error bars represent SD. (c) Western blot analysis for phosphorylated eIF2α and ATF4 24 hours after treatment with DMSO or FGIN-1-27 (5 and 10 µM). Data are representative of 3 independent experiments. (d) Amino acids in Th17 cells measured 72 hours after treatment with FGIN-1-27. The error bars represent SD. (e) ROS was measured using cell permeant reagent 2′,7′ –dichlorofluorescin diacetate (DCFDA) at 24 hours following treatment with FGIN-1-27. Filled grey histogram-DMSO, dotted line-FGIN-1-27 (10 µM) and dashed line indicates FGIN-1-27 (5 µM). […] Data are normalized using DMSO treated cells as 100% and the error bars represent SD.
Cell lysates were prepared by lysis in RIPA buffer containing protease and phosphatase inhibitors and immunoblotting was performed by standard methods.
(a) W estern blot analysis for phosphorylated eIF2α and ATF4 24 hours after treatment
with DMSO or FGIN-1-27 (5 and 10 µM). […]
(a) Indicated sterols were measured in Th17 cells treated with DMSO or FGIN-1-27 for […]

[2] = system: STAT3; assay: Phospho Stat3 staining after IL-6 re-stimulation; assay type: cell-based, mouse; settings: re-stimulation with IL-6
Description: The following day, cells were treated with either DMSO or of FGIN-1-27 (10 μM). For phospho-ZAP70 analyses, cells were stained after 24 hours of treatment using 10 μg/ml of biotinylated anti-CD3 (145-2C11, BD Biosciences) and anti-CD28 (37.51, BD Biosciences) antibodies on ice for 15 minutes, washed, and stimulated in presence of 20 μg/ml of Streptavidin for 10 minutes at 37 degrees. Cells were then fixed in 2% PFA, permeabilized in Methanol/Acetone and stained with anti-phospho ZAP70 antibody (n3kobu5, eBioscience) and anti-CD4 (RM4-5, eBioscience). For phospho-STAT3 analyses, cells were cultured for additional 24 hours in IL-6 free media, before stimulation with 100 ng/ml of mIL-6 for 30 minutes. Cells were then fixed in 2% PFA, permeabilized in Methanol/Acetone and stained with anti-phospho-STAT3 antibody (4/P-STAT3, BD Biosciences) and anti-CD4. Dead cells were excluded using Live/Dead […] (Thermo Fisher) staining prior to stimulation. page 3: Supplementary Figur es Fig S1 (a) Genomic browser screenshot of Tspo depicting normalized RNA-seq read coverage (RPM) in different T cell subsets. Data were downloaded from NCBI GEO (accession number GSE40918) and processed as in Figure 4A. […] (g) Transcript levels for S ta t3 after 24 hours of treatment with DMSO or FGIN-1-27 quantified by qPCR. […]

## CCCCCCN(CCCCCC)C(=O)Cc1c(-c2ccc(F)cc2)[nH]c2ccccc12 [FGIN-1-27, N, N-di-n-hexyl 2-(4-fluorophenyl) indole-3-acetamide]
[1]
  increase in ATF4 translation: 2.8 fold
[2]
  phosphorylation of STAT3: did not show a defect

— article PMC7048748, “Anxiolytic Drug FGIN-1-27 Ameliorates Autoimmunity by Metabolic Reprogramming of Pathogenic Th17 Cells” (Scientific Reports, 2020)
